The values that follow are results of earlier work, collected in US5668009A, “Methods for treating cotton-containing fabrics with CBH I enriched cellulase” (Genencor International, Inc., priority 1995, dated 1997).

Each structure is given as a SMILES string.

For data set [1], the target named is exo-cellobiohydrolase (CBH) type components, as characterized for CBH I and CBH II from Trichoderma reesei. To be noted: competitive inhibition; general characterisation of CBH components; read-out: Ki (cellobiose), competitive inhibition.
Data set [2] addresses β-Glucosidase (BG) components of fungal cellulase. The note with it: competitive inhibition; general characterisation of BG components; read-out: Ki (glucose), competitive inhibition.

`OC[C@H]1O[C@@H](O[C@H]2[C@H](O)[C@@H](O)C(O)O[C@@H]2CO)[C@H](O)[C@@H](O)[C@@H]1O` (some centres unmarked) [cellobiose]: in data set [1], the Ki is about 1 mM.
Regarding `OC[C@H]1OC(O)[C@H](O)[C@@H](O)[C@@H]1O` (some centres unmarked) [glucose], the inhibition constant (Ki) in data set [2] was about 1 mM.

A word on the Ki: it is the equilibrium dissociation constant of an inhibitor or competing ligand from its target.
